Source: ChEMBL document CHEMBL5046297, “Discovery of a Colon-Targeted Azo Prodrug of Tofacitinib through the Establishment of Colon-Specific Delivery Systems Constructed by 5-ASA-PABA-MAC and 5-ASA-PABA-Diamine for the Treatment of Ulcerative Colitis” (J Med Chem, 2022)
The source made the active and inactive calls. The rule behind the calls is not given here.

Assays:
[1] = Ratio of prodrug conversion in BALB/c mouse intestine assessed as tofacitinib AUC(0 to 12 hrs) at 22.5 mg/kg, po to prodrug conversion in BALB/c mouse ileum assessed as tofacitinib AUC(0 to 12 hrs) at 22.5 mg/kg, po; format: ADME, organism-based; conditions: in vivo
[2] = Ratio of prodrug conversion in BALB/c mouse intestine assessed as tofacitinib AUC(0 to 12 hrs) at 22.5 mg/kg, po to prodrug conversion in BALB/c mouse jejunum assessed as tofacitinib AUC(0 to 12 hrs) at 22.5 mg/kg, po; format: ADME, organism-based; conditions: in vivo
[3] = Acute toxicity in Kunming mouse assessed as change in creatine level in kidney at 2000 mg/kg, po measured for 7 days; format: organism-based; conditions: in vivo, 168 h, time 7 day
[4] = Acute toxicity in Kunming mouse assessed as change in urea level in kidney at 2000 mg/kg, po measured for 7 days; format: organism-based; conditions: in vivo, 168 h, time 7 day
[5] = Acute toxicity in Kunming mouse assessed as change in ALT level in liver at 2000 mg/kg, po measured for 7 days; format: organism-based; conditions: in vivo, 168 h, time 7 day
[6] = Acute toxicity in Kunming mouse assessed as change in AST level in liver at 2000 mg/kg, po measured for 7 days; format: organism-based; conditions: in vivo, 168 h, time 7 day
[7] = Chemical stability in simulated intestinal fluid assessed as parent compound remaining incubated for 12 hrs by LC-MS/MS analysis; format: ADME, physicochemical; conditions: simulated gi fluid
[8] = Chemical stability in simulated gastric fluid assessed as parent compound remaining incubated for 12 hrs by LC-MS/MS analysis; format: ADME, physicochemical; conditions: simulated gi fluid
[9] = Chemical stability of compound in pH 1.2 HCl buffer at 100 uM incubated for 24 hrs by HPLC analysis; format: physicochemical; conditions: pH 1.2, 24 h
[10] = Chemical stability of compound in pH 4.5 PBS buffer at 100 uM incubated for 24 hrs by HPLC analysis; format: physicochemical; conditions: pH 4.5, 24 h
[11] = Chemical stability of compound in pH 7.4 PBS buffer at 100 uM incubated for 24 hrs by HPLC analysis; format: physicochemical; conditions: pH 7.4, 24 h
[12] = Prodrug conversion in Sprague-Dawley rat colon content suspension assessed as tofacitinib release measured upto 8 hrs by HPLC analysis; format: ADME, tissue-based
[13] = Prodrug conversion in Sprague-Dawley rat assessed as tofacitinib release at 22.5 mg/kg, po measured after 1 hr by HPLC analysis; format: ADME, organism-based; conditions: in vivo
[14] = Prodrug conversion in Sprague-Dawley rat assessed as Cmax of tofacitinib at 22.5 mg/kg, po measured up to 20 hrs by LC-MS/MS analysis; format: ADME, organism-based; parameters: route oral, dose 22.5 mg/kg, time <=20; conditions: in vivo
[15] = Prodrug conversion in Sprague-Dawley rat assessed as Tmax of tofacitinib at 22.5 mg/kg, po measured up to 20 hrs by LC-MS/MS analysis; format: ADME, organism-based; conditions: in vivo
[16] = Prodrug conversion in Sprague-Dawley rat assessed as AUC (0 to infinity) of tofacitinib at 22.5 mg/kg, po measured up to 20 hrs by LC-MS/MS analysis; format: ADME, organism-based; parameters: route oral, dose 22.5 mg/kg, time <=20; conditions: in vivo
[17] = Prodrug conversion in Sprague-Dawley rat assessed as elimination half life of tofacitinib at 22.5 mg/kg, po measured up to 20 hrs by LC-MS/MS analysis; format: ADME, organism-based; conditions: in vivo
[18] = Prodrug conversion in BALB/c mouse plasma assessed as tofacitinib AUC(0 to 12 hrs) at 22.5 mg/kg, po measured upto 12 hrs by LC-MS/MS analysis; format: ADME, organism-based; parameters: route oral, dose 22.5 mg/kg, time <=12; conditions: in vivo
[19] = Ratio of prodrug conversion in BALB/c mouse intestine assessed as tofacitinib AUC(0 to 12 hrs) at 22.5 mg/kg, po to prodrug conversion in BALB/c mouse duodenum assessed as tofacitinib AUC(0 to 12 hrs) at 22.5 mg/kg, po; format: ADME, organism-based; conditions: in vivo
[20] = Prodrug conversion in BALB/c mouse duodenum assessed as tofacitinib AUC(0 to 12 hrs) at 22.5 mg/kg, po measured upto 12 hrs by LC-MS/MS analysis; format: ADME, organism-based; parameters: route oral, dose 22.5 mg/kg, time <=12; conditions: in vivo
[21] = Prodrug conversion in BALB/c mouse jejunum assessed as tofacitinib AUC(0 to 12 hrs) at 22.5 mg/kg, po measured upto 12 hrs by LC-MS/MS analysis; format: ADME, organism-based; parameters: route oral, dose 22.5 mg/kg, time <=12; conditions: in vivo
[22] = Prodrug conversion in BALB/c mouse ileum assessed as tofacitinib AUC(0 to 12 hrs) at 22.5 mg/kg, po measured upto 12 hrs by LC-MS/MS analysis; format: ADME, organism-based; parameters: route oral, dose 22.5 mg/kg, time <=12; conditions: in vivo
[23] = Prodrug conversion in BALB/c mouse colon assessed as tofacitinib AUC(0 to 12 hrs) at 22.5 mg/kg, po measured upto 12 hrs by LC-MS/MS analysis; format: ADME, organism-based; parameters: route oral, dose 22.5 mg/kg, time <=12; conditions: in vivo
Mus musculus [24] = test: Anti-ulcerative colitis activity against oxazolone induced ulcerative colitis Balb/c mouse model assessed as prevention of body weight loss at 1.5 mg/kg, po bid incubated for 24 hrs; format: functional, organism-based
Mus musculus [25] = test: Anti-ulcerative colitis activity against oxazolone induced ulcerative colitis Balb/c mouse model assessed as prevention of body weight loss at 1.5 mg/kg, po bid measured after 36 hrs; format: functional, organism-based
Mus musculus [26] = test: Anti-ulcerative colitis activity against oxazolone induced ulcerative colitis BALB/c mouse model assessed as improved stool consistency at 1.5 mg/kg, po bid measured after 36 hrs; format: functional, organism-based
Mus musculus [27] = test: Anti-ulcerative colitis activity against BALB/c mouse model of oxazolone-induced ulcerative colitis assessed as prevention of oxazolone-induced increase in colon density at 1.5 mg/kg, po bid measured after 4 days; format: functional, organism-based; conditions: time 4.0 day
Mus musculus [28] = test: Anti-ulcerative colitis activity against BALB/c oxazolone-induced ulcerative colitis mouse model assessed as prevention of oxazolone-induced increase in colon weight at 1.5 mg/kg, po bid measured after 4 days; format: functional, organism-based; conditions: time 4.0 day
Mus musculus [29] = test: Anti-ulcerative colitis activity against BALB/c oxazolone-induced ulcerative colitis mouse model assessed as prevention of oxazolone-induced increase in shortening of colon length at 1.5 mg/kg, po bid measured after 4 days; format: functional, organism-based; conditions: time 4.0 day
Mus musculus [30] = test: Anti-ulcerative colitis activity against oxazolone-induced ulcerative colitis BALB/c mouse model assessed as improvement in spleen index at 1.5 mg/kg, po bid measured after 4 days; format: functional, organism-based; conditions: time 4.0 day
Mus musculus [31] = test: Anti-ulcerative colitis activity against BALB/c oxazolone-induced ulcerative colitis mouse model assessed as prevention of oxazolone-induced edema at 1.5 mg/kg, po by H and E staining based histopathological analysis; format: functional, organism-based
Mus musculus [32] = test: Anti-ulcerative colitis activity against BALB/c oxazolone-induced ulcerative colitis mouse model assessed as prevention of oxazolone-induced leukocyte infiltration at 1.5 mg/kg, po by H and E staining based histopathological analysis; format: functional, organism-based
Mus musculus [33] = test: Anti-ulcerative colitis activity against BALB/c oxazolone-induced ulcerative colitis mouse model assessed as preserved intestinal mucosal epithelial integrity at 1.5 mg/kg, po by H and E staining based histopathological analysis; format: functional, organism-based
Mus musculus [34] = test: Immunosuppressive activity in BALB/c mouse assessed as reduction in CD49+ NK cell count at 1.5 mg/kg, ig bid measured after 4 days by flow cytometry analysis; format: functional, organism-based; conditions: time 4.0 day
Mus musculus [35] = test: Immunosuppressive activity in BALB/c mouse assessed as reduction in spleen index at 1.5 mg/kg, ig bid measured after 4 days by flow cytometry analysis; format: functional, organism-based; conditions: time 4.0 day
[36] = Acute toxicity in Kunming mouse assessed as animal death at 2000 mg/kg, po measured for 7 days; format: organism-based; conditions: in vivo, 168 h, time 7 day
[37] = Acute toxicity in Kunming mouse model assessed as increase in body weight at 2000 mg/kg, po measured for 7 days; format: organism-based; conditions: in vivo, 168 h, time 7 day
[38] = Toxicity in Kunming mouse assessed as change in liver index at 2000 mg/kg, po measured for 7 days; format: organism-based; conditions: in vivo, 168 h, time 7 day
[39] = Toxicity in Kunming mouse assessed as change in kidney index at 2000 mg/kg, po measured for 7 days; format: organism-based; conditions: in vivo, 168 h, time 7 day
[40] = Toxicity in Kunming mouse assessed as change in spleen index at 2000 mg/kg, po measured for 7 days; format: organism-based; conditions: in vivo, 168 h, time 7 day
[41] = Ratio of prodrug conversion in BALB/c mouse intestine assessed as tofacitinib AUC(0 to 12 hrs) at 22.5 mg/kg, po to prodrug conversion in BALB/c mouse colon assessed as tofacitinib AUC(0 to 12 hrs) at 22.5 mg/kg, po; format: ADME, organism-based; conditions: in vivo
Mus musculus [42] = test: Anti-ulcerative colitis activity against oxazolone induced ulcerative colitis BALB/c mouse model assessed as improved stool blood at 1.5 mg/kg, po bid measured after 36 hrs; format: functional, organism-based

SMILES: C[C@@H]1CCN(C(=O)CC#N)C[C@@H]1N(C)c1ncnc2c1ccn2C(=O)N(C)CCN(C)C(=O)OCc1ccc(/N=N/c2ccc(O)c(C(=O)O)c2)cc1Cl
- Ratio AUC [1]: 7.1
- Ratio AUC [2]: 4.49
- Activity [3]: Non-Toxic
- Activity [4]: Non-Toxic
- Activity [5]: Non-Toxic
- Activity [6]: Non-Toxic
- Stability [7]: Stable
- Stability [8]: Stable
- Stability [9]: Stable
- Stability [10]: Stable
- Stability [11]: Stable
- Drug metabolism [12]: 3.22 mmol/L/h
- Drug metabolism [13]: Metabolite_Detected
- Cmax [14]: 2490 nM
- Tmax [15]: 8 h
- AUC [16]: 19.27 µM·h
- beta t1/2 [17]: 3.09 h
- AUC [18]: 4.5 µM·h
- Ratio AUC [19]: 1.48
- AUC [20]: 99 µM·h
- AUC [21]: 193 µM·h
- AUC [22]: 357 µM·h
- AUC [23]: 1600 µM·h
- Activity (Mus musculus [24]): Active
- Activity (Mus musculus [25]): Active
- Activity (Mus musculus [26]): Active
- Activity (Mus musculus [27]): Active
- Activity (Mus musculus [28]): Active
- Activity (Mus musculus [29]): Active
- Activity (Mus musculus [30]): Active
- Activity (Mus musculus [31]): Active
- Activity (Mus musculus [32]): Active
- Activity (Mus musculus [33]): Active
- Activity (Mus musculus [34]): inactive
- Activity (Mus musculus [35]): inactive
- Activity [36]: Non-Toxic
- Activity [37]: Non-Toxic
- Activity [38]: Non-Toxic
- Activity [39]: Non-Toxic
- Activity [40]: Non-Toxic
- Ratio AUC [41]: 9.61
- Activity (Mus musculus [42]): Active
